# In patent publication US10472635B2, “Methods of treating brain edema” (priority 2015, dated 2019):
# Tests used:
# [1] = test system: cortical neurons in brain slices; assay: Neuronal swelling imaging assay in brain slices (cross sectional area of CoroNa-stained soma, two-photon); format: cell-based, rat
# rat hippocampal slices = assay: LDH release cell death assay in hippocampal slices; format: cell-based
# [2] = test system: voltage-dependent Cl^− current in layer 4 cortical neurons; assay: Whole-cell voltage clamp of depolarization-activated Cl- current; format: cell-based, rat; settings: depolarization to −20 mV or greater; cocktail of channel blockers; GlyH-101 by dialysis
# Description: Electrophysiology: Whole-cell recordings were performed in the presence of antagonists of GABAA (10 μM picrotoxin), AMPA/kainite (10 μM 6-cyano-7-nitoquinoxaline-2,3-dione—CNQX), and NMDA (2R-amino-5-phosphonovaleric acid—APV) receptors. 60 μM cadmium, 50 μM nickel and 100 μM 4AP (4-aminopyridine) were used to block voltage-gated calcium channels and A-type potassium channels. Whole-cell voltage-clamp recordings from cortical neurons were carried out at room temperature while the recording chamber was perfused with ACSF at 1-1.5 ml min-1. Recordings were made using a MultiClamp 700B amplifier controlled by Clampex 10.2 via a Digidata 1440A data acquisition system with 3-5M ? glass electrodes. The pipette solution containing (in m ? ): 108 CsCl, 8 TEA-Cl, 8 NaGluc, 1 CsEGTA, 4 K-ATP, 0.3 Na-GTP, 10 Hepes, 2MgCl2 (pH 7.2 with CsOH, 286 mosmol 1-1). Normal ACSF contained (in mM): 126 NaCl, 26 NaHCO3, 10 glucose, 2 MgCl2, 1.25 NaH2PO4, 2.5 KCl, 2.0 CaCl2 (pH 7.25, 310 mosmol 1-1). NaCl was replaced with 126 mM Na-isethionate in the low-chloride ACSF. Recordings where the series resistance varied more than 10% were rejected. Data were analyzed with Clampfit 10.0.
# The opening of Na^+ permeable channels causes both [Na^+]i accumulation and neuronal depolarization. […] However progressive accumulation of extracellular K^+ could lead to further depolarization of the membrane. […]
# SLC26A11 = target: T1, SLC26A11 (Homo sapiens, UniProt Q86WA9); settings: cited from earlier work
# T1 sequence (Q86WA9 1-606): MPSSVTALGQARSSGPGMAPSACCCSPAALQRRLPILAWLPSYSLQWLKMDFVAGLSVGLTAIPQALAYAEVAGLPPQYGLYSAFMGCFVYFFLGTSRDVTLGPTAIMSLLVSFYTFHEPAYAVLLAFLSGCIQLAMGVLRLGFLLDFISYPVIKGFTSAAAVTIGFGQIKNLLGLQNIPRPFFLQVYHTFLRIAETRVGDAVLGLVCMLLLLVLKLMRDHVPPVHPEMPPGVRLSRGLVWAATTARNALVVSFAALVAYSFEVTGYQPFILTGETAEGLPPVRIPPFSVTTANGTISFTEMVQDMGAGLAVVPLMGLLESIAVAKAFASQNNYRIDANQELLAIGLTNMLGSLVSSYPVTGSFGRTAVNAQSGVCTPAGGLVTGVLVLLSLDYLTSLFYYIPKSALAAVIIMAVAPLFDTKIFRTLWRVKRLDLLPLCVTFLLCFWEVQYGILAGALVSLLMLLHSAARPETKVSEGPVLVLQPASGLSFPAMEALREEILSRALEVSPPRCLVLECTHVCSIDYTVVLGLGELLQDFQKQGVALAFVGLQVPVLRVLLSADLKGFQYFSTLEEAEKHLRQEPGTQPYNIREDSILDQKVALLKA
# SLC4-A3, A8, A10 = settings: cited from earlier work
# [3] = test system: neuronal [Na^+]i in brain slices; assay: Neuronal [Na+]i by CoroNa Green fluorescence / two-photon FLIM; format: cell-based, rat; settings: CoroNa signal; TTX 1 μM; DIDS 250 μM
# VRAC = settings: cited from earlier work
# Maxi-Anion Channel = settings: cited from earlier work
compound,measurement,setting,value
O=S(=O)(O)c1cc(N=C=S)ccc1C=Cc1ccc(N=C=S)cc1S(=O)(=O)O [DIDS],effect on veratridine-induced neuronal swelling,"[1]; 22-24 °C, antagonist bath applied and in puffing pipette, DIDS 250 μM, NPPB 200 μM, TTX 1 μM",reduced the swelling
same,effect on veratridine-stimulated neuronal swelling at 37 °C,"[1]; 37 °C, Calcein green-AM",block
same,effect on NMDA-induced neuronal swelling,"[1]; DIDS 250 μM, 500 μM, 1 mM, d-APV 100 μM",blocked NMDA-evoked neuronal swelling in a dose-dependent manner
same,effect on veratridine-induced cell death (LDH release),rat hippocampal slices; 50 μM veratridine,prevented cell death
same,"effect on NMDA-induced cell death (LDH release), Ca2+-independent",rat hippocampal slices; NMDA in Ca2+ free extracellular solution,blocked
same,"effect on NMDA-induced cell death (LDH release), Ca2+-dependent","rat hippocampal slices; NMDA with extracellular Ca2+ present, reduced extracellular Na+",not blocked
same,effect on non-inactivating Cl- current elicited by depolarization,[2],blocked
same,concentration (antagonist sensitivity of channel/transporter),SLC26A11,0.5 to 1 mM
same,concentration (antagonist sensitivity of channel/transporter),"SLC4-A3, A8, A10",0.1 to 0.5 mM
same,effect on veratridine-induced [Na+]i increase,[3],not affected
same,concentration (antagonist sensitivity of channel/transporter),VRAC,100 to 400 µM
same,concentration (antagonist sensitivity of channel/transporter),Maxi-Anion Channel,100 µM
